From patent publication US6946076B2, “Removal of phosphate from water” (Dudley Mills Pty Ltd., priority 2001, dated 2005)

Details: made by mixing lanthanum chloride, citric acid and sodium hydroxide solutions

## lanthanum hydroxy-citrate
  content of clear stable solutions: up to 200 g/l
